Biological target: T1, human Cav3.2 channels (Homo sapiens, UniProt O95180)
T1 construct: human Cav3.2 channel ORF (Open Reading Frame) gene; expressed in transfected cells; host or cells: HEK293 cells (ATCC No. CRL-1573), pcDNA3.1(+) plasmid
Test: T-type calcium blocking action: intracellular calcium (Fluo-4 AM fluorescence) in HEK293 cells steadily expressing human Cav3.2 channels
Format: cell-based
Settings: HEK293 cells expressing human Cav3.2; KCl-stimulated calcium influx, Fluo-4 fluorescence; Tables 1 to 3
Excerpt: T-Type Calcium Blocking Action
(1) Construction of Cells Steadily Expressing Human Cav3.2 Channels
A sequence obtained by adding HindIII site and a kozak sequence (GCCACC) to the 5′-side of human Cav3.2 channel ORF (Open Reading Frame) gene and adding a KpnI site to the 3′-side of the gene, was incorporated into pcDNA3.1(+) (Thermo Fisher Scientific, #V790-20), and the plasmid was introduced into HEK293 cells (ATCC No. CRL-1573) according to the protocol of FuGENE (registered trademark) HD Transfection Reagent (Promega, #E2311).
(2) Method for Measuring Intracellular Calcium Concentration
The cells steadily expressing human Cav3.2 channels produced by testing method (1) were seeded on a 96-well plate (Dulbecco's modified Eagle medium (DMEM) medium containing 10% fetal bovine serum (FBS) was used as a medium). The cells were seeded and cultured for 48 hours under conditions of 37° C. and 5% CO2. Thereafter, the cells were washed with buffer A in order to remove the medium. Each well was treated with 80 μL of a fluorescent dye solution produced by mixing 22 μg of a fluorescent calcium indicator, Fluo-4 AM (Dojindo Laboratories, #F311), 20 μL of DMSO, 1 μL of 10% Pluronic F-127 (Thermo Fisher Scientific, #P6866), and 4 mL of buffer A. The cells were allowed to stand for 45 minutes at room temperature under light-shielded conditions, and then washed with buffer B in order to completely replace the solution. 70 μL of DMSO having the same concentration as that of a test compound as a negative control and 70 μL of a mixture containing 1 μM of a known blocker RQ-00311651 and the test compound as a positive control were each added to each well in a form of being contained in the buffer B. The test compound was dissolved in 100% DMSO and added at a final concentration of 0.1%. Then, the cells were further allowed to stand at room temperature under light-shielded conditions for 15 minutes and placed in a microplate reader EnVision (PerkinElmer). Background fluorescence was measured in each well, and then a 5 μg/mL grammicidin solution was added to buffer B at 10 μL/well. After 90 seconds, baseline fluorescence was measured. Thereafter, 83.8 mM KCl was added to buffer B at 20 μL/well, and an increase in fluorescence caused by calcium influx generated by the stimulus was measured for 10 seconds. A blocking percentage was calculated from a maximum fluorescence increase value from a baseline, a logarithmic value of a compound concentration and blockery activity were plotted, and thereby an IC50 value was calculated. In the measurement, fluorescence at 510 nm that was emitted when the cells were irradiated with excitation light at 485 nm was observed.
Buffer A: 140 mM NaCl, 5 mM KCl, 1 mM MgCl2, 0.5 mM CaCl2, 10 mM Glucose, 10 mM HEPES, pH 7.3
Buffer B: 137.9 mM Choline-Cl, 4.1 mM KCl, 1 mM MgCl2, 0.5 mM CaCl2, 10 mM Glucose, 10 mM HEPES, pH 7.3

T1 sequence (O95180 whole entry): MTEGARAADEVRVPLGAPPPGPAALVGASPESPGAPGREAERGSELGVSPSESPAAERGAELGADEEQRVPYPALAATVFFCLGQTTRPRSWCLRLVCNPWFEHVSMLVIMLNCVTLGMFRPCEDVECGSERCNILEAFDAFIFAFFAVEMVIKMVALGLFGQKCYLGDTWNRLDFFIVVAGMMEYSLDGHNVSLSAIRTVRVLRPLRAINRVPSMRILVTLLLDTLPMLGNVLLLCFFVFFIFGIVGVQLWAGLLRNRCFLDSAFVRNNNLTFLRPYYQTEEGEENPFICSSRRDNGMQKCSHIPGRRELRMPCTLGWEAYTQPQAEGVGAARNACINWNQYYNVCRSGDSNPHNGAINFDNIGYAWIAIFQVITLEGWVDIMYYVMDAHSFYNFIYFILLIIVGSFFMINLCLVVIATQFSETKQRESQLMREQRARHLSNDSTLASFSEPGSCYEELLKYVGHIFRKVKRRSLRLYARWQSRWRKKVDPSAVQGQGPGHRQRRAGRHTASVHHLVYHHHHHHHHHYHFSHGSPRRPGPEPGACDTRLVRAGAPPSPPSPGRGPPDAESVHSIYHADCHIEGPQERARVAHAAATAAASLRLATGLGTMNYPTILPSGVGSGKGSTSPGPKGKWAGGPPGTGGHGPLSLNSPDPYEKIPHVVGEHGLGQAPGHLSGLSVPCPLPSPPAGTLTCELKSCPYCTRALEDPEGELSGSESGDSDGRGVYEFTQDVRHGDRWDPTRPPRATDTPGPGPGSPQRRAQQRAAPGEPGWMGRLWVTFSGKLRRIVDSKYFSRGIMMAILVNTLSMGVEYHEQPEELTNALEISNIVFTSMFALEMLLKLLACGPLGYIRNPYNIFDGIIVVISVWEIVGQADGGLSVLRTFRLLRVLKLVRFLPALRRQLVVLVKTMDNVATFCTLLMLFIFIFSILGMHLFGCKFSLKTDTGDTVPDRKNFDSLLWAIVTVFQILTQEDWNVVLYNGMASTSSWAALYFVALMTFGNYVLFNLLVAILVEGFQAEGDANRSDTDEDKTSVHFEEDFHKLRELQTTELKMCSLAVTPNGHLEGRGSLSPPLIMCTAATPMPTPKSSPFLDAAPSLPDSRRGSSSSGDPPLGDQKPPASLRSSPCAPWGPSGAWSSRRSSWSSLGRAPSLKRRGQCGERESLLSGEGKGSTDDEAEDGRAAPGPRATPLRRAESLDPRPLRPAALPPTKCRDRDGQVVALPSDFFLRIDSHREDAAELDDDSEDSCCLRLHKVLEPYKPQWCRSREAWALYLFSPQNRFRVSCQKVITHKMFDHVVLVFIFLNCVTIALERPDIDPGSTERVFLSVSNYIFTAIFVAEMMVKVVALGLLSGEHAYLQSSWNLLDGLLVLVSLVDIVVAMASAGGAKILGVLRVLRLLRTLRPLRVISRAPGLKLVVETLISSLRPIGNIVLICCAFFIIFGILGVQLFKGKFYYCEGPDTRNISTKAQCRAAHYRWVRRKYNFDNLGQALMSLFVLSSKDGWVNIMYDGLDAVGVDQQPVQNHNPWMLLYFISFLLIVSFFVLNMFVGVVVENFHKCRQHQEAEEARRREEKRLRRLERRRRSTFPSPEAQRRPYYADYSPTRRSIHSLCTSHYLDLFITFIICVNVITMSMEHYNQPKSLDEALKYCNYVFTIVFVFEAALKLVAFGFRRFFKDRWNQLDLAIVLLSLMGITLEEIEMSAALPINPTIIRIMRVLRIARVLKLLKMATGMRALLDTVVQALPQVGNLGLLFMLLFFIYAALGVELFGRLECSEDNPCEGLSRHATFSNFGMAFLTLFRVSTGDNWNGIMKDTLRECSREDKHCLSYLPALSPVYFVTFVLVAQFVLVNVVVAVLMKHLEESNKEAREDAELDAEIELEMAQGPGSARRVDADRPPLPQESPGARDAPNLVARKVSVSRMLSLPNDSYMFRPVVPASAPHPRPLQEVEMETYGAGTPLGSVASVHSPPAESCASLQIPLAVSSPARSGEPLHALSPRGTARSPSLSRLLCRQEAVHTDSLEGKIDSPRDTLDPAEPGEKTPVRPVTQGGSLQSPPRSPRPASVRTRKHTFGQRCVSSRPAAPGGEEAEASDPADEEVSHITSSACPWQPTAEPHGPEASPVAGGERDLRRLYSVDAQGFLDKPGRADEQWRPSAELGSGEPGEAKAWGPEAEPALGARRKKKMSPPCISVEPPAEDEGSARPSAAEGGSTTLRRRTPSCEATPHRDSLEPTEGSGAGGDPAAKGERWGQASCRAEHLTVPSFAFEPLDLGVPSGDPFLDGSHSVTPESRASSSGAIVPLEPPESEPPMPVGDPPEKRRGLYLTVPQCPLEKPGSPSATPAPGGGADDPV

| IC50 [nM] | Compound |
| --- | --- |
| 380 | CC(C)Cc1ccc(C(C)C(=O)N[C@@H]2CCN(c3cncc(C(F)(F)F)c3)C2)cc1 (stereo partly drawn) [Example 17, 2-(4-Isobutylphenyl)-N—((R)-1-(5-(trifluoromethyl)pyridin-3-yl)pyrrolidin-3-yl)propanamide] |
| 90 | Cc1ncc(N2CC[C@@H](NC(=O)Cc3ccc(C4CC4)cc3)C2)cc1C(F)(F)F [Example 18, (R)-2-(4-cyclopropylphenyl)-N-(1-(6-methyl-5-(trifluoromethyl)pyridin-3-yl)pyrrolidin-3-yl)acetamide] |
| 3500 | CC(C)(O)c1cncc(N2CC[C@@H](NC(=O)Cc3ccc(C4CC4)cc3)C2)c1 [Example 19, (R)-2-(4-cyclopropylphenyl)-N-(1-(5-(2-hydroxypropan-2-yl)pyridin-3-yl)pyrrolidin-3-yl)acetamide] |
| 1200 | NC(=O)C1(NC(=O)Cc2ccc(C3CC3)cc2)CCN(c2cncc(C(F)(F)F)c2)C1 (stereo not shown) [Example 21, 3-(2-(4-cyclopropylphenyl)acetamido)-1-(5-(trifluoromethyl)pyridin-3-yl)pyrrolidine-3-carboxyamide] |
| 1600 | O=C(Cc1ccc(O)cc1)N[C@@H]1CCN(c2cncc(C(F)(F)F)c2)C1 [Example 22, (R)-2-(4-hydroxyphenyl)-N-(1-(5-(trifluoromethyl)pyridin-3-yl)pyrrolidin-3-yl)acetamide] |
| 150 | O=C(Cc1ccc(N2CCS(=O)(=O)CC2)cc1)N[C@@H]1CCN(c2cncc(C(F)(F)F)c2)C1 [Example 23, (R)-2-(4-(1,1-dioxidethiomorpholino)phenyl)-N-(1-(5-(trifluoromethyl)pyridin-3-yl)pyrrolidin-3-yl)acetamide] |
| 150 | C[Si](C)(C)c1ccc(CC(=O)N[C@@H]2CCN(c3cncc(C(F)(F)F)c3)C2)cc1 [Example 26, (R)—N-(1-(5-(trifluoromethyl)pyridin-3-yl)pyrrolidin-3-yl)-2-(4-(trimethylsilyl)phenyl)acetamide] |
| 700 | CC(C)(O)COc1ccc(CC(=O)N[C@@H]2CCN(c3cncc(C(F)(F)F)c3)C2)cc1 [Example 27, (R)-2-(4-(2-hydroxy-2-methylpropoxy)phenyl)-N-(1-(5-(trifluoromethyl)pyridin-3-yl)pyrrolidin-3-yl)acetamide] |
| 200 | O=C(Cc1ccc(C2CC2)cc1)N[C@H]1CN(c2cncc(C(F)(F)F)c2)C[C@@H]1F [Example 28, 2-(4-cyclopropylphenyl)-N-((3S,4S)-4-fluoro-1-(5-(trifluoromethyl)pyridin-3-yl)pyrrolidin-3-yl)acetamide] |
| 40 | CN(C)c1ccc(CC(=O)N[C@@H]2CCN(c3cncc(C(F)(F)F)c3)C2)cc1 [Example 29, (R)-2-(4-(dimethylamino)phenyl)-N-(1-(5-(trifluoromethyl)pyridin-3-yl)pyrrolidin-3-yl)acetamide] |
| 650 | O=C(Cc1ccc([N+](=O)[O-])cc1)N[C@@H]1CCN(c2cncc(C(F)(F)F)c2)C1 [Example 30, (R)-2-(4-nitrophenyl)-N-(1-(5-(trifluoromethyl)pyridin-3-yl)pyrrolidin-3-yl)acetamide] |
| 210 | CC(C)Cc1ccc([C@H](C)C(=O)N[C@@H]2CCN(c3cncc(C(F)(F)F)c3)C2)cc1 [Example 31, (S)-2-(4-isobutylphenyl)-N—((R)-1-(5-(trifluoromethyl)pyridin-3-yl)pyrrolidin-3-yl)propanamide] |
| 1000 | Nc1ccc(CC(=O)N[C@@H]2CCN(c3cncc(C(F)(F)F)c3)C2)cc1 [Example 33, (R)-2-(4-aminophenyl)-N-(1-(5-(trifluoromethyl)pyridin-3-yl)pyrrolidin-3-yl)acetamide] |
| 630 | CC(=O)Nc1ccc(CC(=O)N[C@@H]2CCN(c3cncc(C(F)(F)F)c3)C2)cc1 [Example 35, (R)-2-(4-acetamidophenyl)-N-(1-(5-(trifluoromethyl)pyridin-3-yl)pyrrolidin-3-yl)acetamide] |
| 980 | N#CC1(NC(=O)Cc2ccc(C3CC3)cc2)CCN(c2cncc(C(F)(F)F)c2)C1 (stereo not shown) [Example 36, N-(3-cyano-1-(5-(trifluoromethyl)pyridin-3-yl)pyrrolidin-3-yl)-2-(4-cyclopropylphenyl)acetamide] |
| 190 | CCC1(NC(=O)Cc2ccc(C3CC3)cc2)CCN(c2cncc(C(F)(F)F)c2)C1 (stereo not shown) [Example 43, 2-(4-cyclopropylphenyl)-N-(3-ethyl-1-(5-(trifluoromethyl)pyridin-3-yl)pyrrolidin-3-yl)acetamide] |

Second part, the compound before the results:

| Compound | IC50 [nM] |
| --- | --- |
| O=C(N[C@@H]1CCN(c2cncc(C(F)(F)F)c2)C1)C1(c2ccc(Cl)cc2)CC1 [Example 24, (R)-1-(4-chlorophenyl)-N-(1-(5-(trifluoromethyl)pyridin-3-yl)pyrrolidin-3-yl)cyclopropane-1-carboxyamide] | 720 |
| O=C(N[C@@H]1CCN(c2cncc(C(F)(F)F)c2)C1)C(O)c1ccc(Br)cc1 (stereo partly drawn) [Example 25, 2-(4-Bromophenyl)-2-hydroxy-N—((R)-1-(5-(trifluoromethyl)pyridin-3-yl)pyrrolidin-3-yl)acetamide] | 2000 |
| O=C(Cc1ccc(C(F)(F)F)c(F)c1)N[C@@H]1CCN(c2cncc(C(F)(F)F)c2)C1 [Example 32, (R)-2-(3-fluoro-4-(trifluoromethyl)phenyl)-N-(1-(5-(trifluoromethyl)pyridin-3-yl)pyrrolidin-3-yl)acetamide] | 150 |
| O=C(N[C@@H]1CCN(c2cncc(C(F)(F)F)c2)C1)C1(c2ccc(C(F)(F)F)cc2)CC1 [Example 34, (R)-1-(4-(trifluoromethyl)phenyl)-N-(1-(5-(trifluoromethyl)pyridin-3-yl)pyrrolidin-3-yl)cyclopropane-1-carboxyamide] | 240 |
| COC(=O)C1(NC(=O)Cc2ccc3cc[nH]c3c2)CCN(c2cncc(C(F)(F)F)c2)C1 (stereo not shown) [Example 37, Methyl 3-(2-(1H-indol-6-yl)acetamido)-1-(5-(trifluoromethyl)pyridin-3-yl)pyrrolidine-3-carboxylate] | 27 |
| COC(=O)C1(NC(=O)Cc2ccc(C(F)(F)F)cc2)CCN(c2cncc(C(F)(F)F)c2)C1 (stereo not shown) [Example 38, Methyl 3-(2-(4-(trifluoromethyl)phenyl)acetamido)-1-(5-(trifluoromethyl)pyridin-3-yl)pyrrolidine-3-carboxylate] | 35 |
| O=C(N[C@@H]1CCN(c2cncc(C(F)(F)F)c2)C1)[C@H]1C[C@@H]1c1nc2ccccc2o1 [Example 39, (1S,2S)-2-(benzo[d]oxazol-2-yl)-N—((R)-1-(5-(trifluoromethyl)pyridin-3-yl)pyrrolidin-3-yl)cyclopropane-1-carboxyamide] | 22 |
| O=C(Cc1ccc(N2CCOCC2)cc1)N[C@@H]1CCN(c2nc(C(F)(F)F)cs2)C1 [Example 40, (R)-2-(4-morpholinophenyl)-N-(1-(4-(trifluoromethyl)thiazol-2-yl)pyrrolidin-3-yl)acetamide] | 300 |
| COC(=O)C1(NC(=O)Cc2ccc(N3CCOCC3)cc2)CCN(c2cncc(C(F)(F)F)c2)C1 (stereo not shown) [Example 41, Methyl 3-(2-(4-morpholinophenyl)acetamido)-1-(5-(trifluoromethyl)pyridin-3-yl)pyrrolidine-3-carboxylate] | 25 |
| O=C(Cc1ccc(N2CCOCC2)cc1)N[C@@H]1CCN(c2ccc(C(F)(F)F)nc2)C1 [Example 42, (R)-2-(4-morpholinophenyl)-N-(1-(6-(trifluoromethyl)pyridin-3-yl)pyrrolidin-3-yl)acetamide] | 250 |
| O=C(N[C@@H]1CCN(c2cncc(C(F)(F)F)c2)C1)[C@H]1C[C@@H]1c1nc2ccc(F)cc2o1 [Example 44, (1S,2S)-2-(6-fluorobenzo[d]oxazol-2-yl)-N—((R)-1-(5-(trifluoromethyl)pyridin-3-yl)pyrrolidin-3-yl)cyclopropane-1-carboxyamide] | 14 |
| O=C(N[C@@H]1CCN(c2cncc(C(F)(F)F)c2)C1)[C@H]1C[C@@H]1c1nc2cc(F)c(F)cc2o1 [Example 45] | 11 |

From patent US20220226299A1 (NIPPON CHEMIPHAR CO., LTD., priority 2019, published 2022)
